In publication PMC6651038, “16-Hydroxy-Lycopersene, a Polyisoprenoid Alcohol Isolated from Tournefortia hirsutissima, Inhibits Nitric Oxide Production in RAW 264.7 Cells and Induces Apoptosis in Hep3B Cells” (Molecules, 2019):
Where two headings read alike, the source gives them in different places.

Legend:
[1] = tested on: nitric oxide (NO) production in LPS-stimulated RAW 264.7 cells; assay: NO (nitrite, Griess) production in LPS-stimulated RAW 264.7 cells; type: cell-based, murine; conditions: for inhibitory activity on NO production: highest evaluated concentration (60 µg/mL)
Method: (§1) RAW 264.7 cells (murine macrophage cell line) were purchased from ATCC (Georgetown, Washington, DC, USA ) and cultured in Advanced DMEM/F12 medium (Gibco, Waltham, MA USA) supplemented with 1% GlutaMAX (Gibco) and 3.5% inactivated FBS (Gibco), without antibiotics at 37 °C in 5% CO2.
RAW 264.7 cells were seeding (2 × 10^4 cells in 200 µL) and incubated for 24 h, then, were treated with various concentrations of the investigated samples, indomethacin (30 µg/mL) or DMSO (0.4%, v/v) for 2 h followed by stimulation with 1 µg/mL of LPS (from E. coli purchased from Sigma Aldrich, St. Louis, MO, USA) for 21 h. The nitrite is a stable metabolite of the NO and its concentration was calculated with Griess reagent and the aid of a standard curve of NaNO2. Cell-free supernatants (50 µL) were collected and incubated for 10 min with the Griess reagent (50 µL of 0.1% N-(1-napthyl)-ethylenediamine dihydrochloride and 50 µL of 1% sulphanilamide both in 2.5% phosphoric acid) at room temperature and absorbance at 540 nm was measured using a microplate reader.

[2] = tested on: RAW 264.7 cells; assay: Cell viability of RAW 264.7 cells (MTS); type: cell-based, murine; conditions: at 30 and 60 µg/mL
Method: as §1
The cell viability was determined by using MTS from Promega. The cells (1 × 10^4 cells per well) were seeding in 96-well plates in 100 µL of medium and were incubated for 24 h. Then, the cells were treated with various concentrations of the investigated samples, positive control (etoposide, 30 µg/mL) or vehicle (0.4% DMSO in culture medium) and incubated for 24 h. Subsequently, 20 µL of MTS was added at 20 h of treatment for 4 h, after that, the absorbance at 490 nm was measured using a microplate reader (Biotek, Winooski, VT, USA). The absorbance of control cells (untreated) was taken as 100% viability. The concentration of DMSO together with the treatments, in the culture medium was ≤ 0.4%, v/v.

[3] = tested on: HeLa; assay: Antiproliferative MTS assay, HeLa; type: cell-based; conditions: Homo sapiens, 72 h
Method: (§2) PC3 (prostate), HeLa (cervical) and Hep3B and HepG2 (hepatocellular) human cancer cell lines were purchased from ATCC (Manassas, VA, USA). We also included immortalized human hepatocyte cell line (IHH) as a control of non-cancerous cells. PC3 was grown in RPMI-1640 medium (Sigma Aldrich, St. Louis, MO, USA), while Hep3B, HepG2, HeLa and IHH in DMEM medium (Invitrogen, Thermo Fisher Scientific, Waltham, MA, USA) supplemented with 10% SFB and 2 mM glutamine, all cultures were incubated at 37 °C in 5% CO2.
(§3) Cells (4 × 10^3 cells/well) were seeding in 96-well plates. The cells were treated with the investigated samples (at 0.01, 0.1, 1, 10 and 100 µg/mL) and incubated at 37 °C in 5% CO2 for 72 h. PTX was used as positive control. The number of viable cells in proliferation was checked by MTS assay, following the manufacturer’s instructions. The absorbance was measured at 450 nm using an automated ELISA reader (Promega, Madison, WI, USA).

[4] = tested on: PC3; assay: Antiproliferative MTS assay, PC3; type: cell-based; conditions: Homo sapiens, PC-3, 72 h
Method: as §2, §3

[5] = tested on: HepG2; assay: Antiproliferative MTS assay, HepG2; type: cell-based; conditions: Homo sapiens, 72 h
Method: as §2, §3

[6] = tested on: Hep3B; assay: Antiproliferative MTS assay, Hep3B; type: cell-based; conditions: Homo sapiens, 72 h
Method: as §2, §3

[7] = tested on: immortalized human hepatocyte cell line (IHH); assay: Antiproliferative MTS assay, IHH non-cancerous cells; type: cell-based; conditions: 72 h
Method: as §2, §3

[8] = tested on: Hep3B cells; assay: Cell cycle analysis by flow cytometry, Hep3B; type: cell-based, human; conditions: treatment at IC50, 72 h, control 0.0%
Method: (§4) PC3, Hep3B, HepG2 and HeLa cells (1.25 × 10^5 cells/well) were seed in 6-well plates and allowed to attach overnight at 37 °C in 5% CO2. Exponential growing cells were treated with Compound 1 to the IC50 values for 72 h. PTX (10 nM) was included as a positive control of the G2/M phase arrest. Cells from each treatment were trypsinized and collected into single cell suspensions, centrifuged, and fixed in cold ethanol (70%) overnight at −20 °C. The cells were then treated with 0.01 M RNase (Sigma Aldrich, St. Louis, MO, USA) and stained with 7.5 µg/mL PI (Invitrogen) for 30 min in the dark. The percentage of cells in sub-G1, G1, S, and G2/M phases was analyzed with a flow cytometer (Becton Dickinson, FACS Calibur; Beckman Coulter, Inc., Brea, CA, USA) using 10,000 cells for each sample. Data obtained from the flow cytometer were analyzed using the FlowJo Software (Tree Star, Inc., Ashland, OR, USA).

[9] = tested on: HepG2 cells; assay: Cell cycle analysis by flow cytometry, HepG2; type: cell-based, human; conditions: HepG2, treatment at IC50, 72 h; control 1.5%
Method: as §4

[10] = tested on: PC3 cells; assay: Cell cycle analysis by flow cytometry, PC3; type: cell-based, human; conditions: PC3, treatment at IC50, 72 h; control 0.9%
Method: as §4

[11] = tested on: Hep3B cells; assay: Annexin V-FITC/PI staining, flow cytometry; type: cell-based, human; conditions: Compound 1 21.3 µM, PTX 20 nM, 72 h
Method: Apoptosis was evaluated using Annexin V Apoptosis Detection Kit FITC (Thermo Fisher Scientific, CA, USA). Hep3B cells (2.5 × 10^5 cells) were treated with 1 (21.31 µM). PTX (20 nM) was used as positive control of apoptosis. After 72 h, the cells were harvested and washed twice with ice-cold PBS (0.01 M, pH 7.2). After 5 min of centrifuging at 200 g. Annexin V-FITC/PI staining were performed according to manufacturer’s instruction. Cell apoptosis was analyzed on flow cytometer (10,000 cells for each sample). Data obtained from the flow cytometer were analyzed using the FlowJo Software.

[12] = tested on: Hep3B cells; assay: Cell morphology, acridine orange/ethidium bromide staining; type: cell-based, human; conditions: 21.3 µM (12 µg/mL), 72 h
Method: The morphological changes of Hep3B cells exposed to Compound 1 were evaluated using acridine orange (AO) and ethidium bromide (EB) staining. In brief, Hep3B cells (2 × 10^4 cells per well) were seeding in 24-well plates and exposed with Compound 1 at 21.31 µM for 72 h. After 72 h of treatment cells were exposed to a solution of 100 µg/mL AO and 100 µg/mL EB, according to reported procedures. For controls, the cells were grown 71 h before being treated 30 min with H2O2 (positive control of apoptosis) or being boiling in water at 95 °C for 10 s (positive control of necrosis). Then, the cells were observed using a fluorescence microscope.

[13] = tested on: Bcl-2; assay: RT-PCR, Bcl-2 mRNA in Hep3B cells; type: cell-based, human; conditions: 21.3 µM, 72 h, vs non-treated control
Method: (§5) RNA was quantified using NanoDrop ND-1000 (Thermo Scientific, Waltham, MA, USA) and the RNA content was normalized. The RT-PCR was performed using a One-Step RT-PCR Kit with Thermo-Start Taq (Thermo Scientific, Waltham, MA, USA) following the manufacturer's instructions. PCR was performed with the following primers sequences: Bcl-2 ([NT]), Bax ([NT] ([NT]). Sequencing was performed at the Instituto de Biotecnología of Universidad Nacional Autónoma de México.

[14] = tested on: Bax; assay: RT-PCR, Bax mRNA in Hep3B cells; type: cell-based, human; conditions: 21.3 µM, 72 h, vs non-treated control
Method: as §5

[15] = tested on: caspase 3/7; assay: Caspase-Glo 3/7 assay in Hep3B cells; type: cell-based, human; conditions: 21.3 µM (12 µg/mL), 72 h
Method: Hep3B cells (8 × 10^3 cells per well) were plated on 96-well plates and treated with 1 at 21.31 µM for 72 h. After treatment, the caspase 3/7 activity was determined using the luminescent Caspase-Glo® 3/7 Assay (Promega, Madison, WI, USA) following the manufacturer’s instructions. The results were represented as relative units of luminescence.

[16] = tested on: U937 cells; conditions: cited from earlier work
[17] = tested on: TPA-induced acute edema in mice ear; assay: TPA-induced ear edema in mice; type: in vivo; conditions: 1 mg/ear topical, male ICR mice, 6 h after TPA
Method: Edema in mice ear was induced with TPA purchased from Sigma Aldrich (St. Louis, MO, USA), following the method previously described. All animals were treated in accordance with Official Mexican Rule of Technical Specifications for the Production, Care and Use of Laboratory Animals (NOM-062-ZOO-1999 Guidelines) and international ethical guidelines for the care and use of experimental animals. The experimental protocol was authorized by the local Health Research Committee (Instituto Mexicano del Seguro Social (IMSS)). The experiments were carried out with male ICR mice weighing between 25–30 g (five animals per treatment). […] The treatments were applied topically on right ear and vehicle on left ear, thereafter, the edema was induced by administration topically of TPA (2.5 µg) over both ears. Six hours after administration of TPA, the animals were sacrificed by cervical dislocation. Circular sections 6 mm in diameter were taken from both the treated and non-treated ears and weighed to determine the inflammation.

[18] = tested on: pro-inflammatory cytokines; set-up: method as in PMID 27921103; conditions: 40 µM; via heme oxygenase-1 induction; cited from earlier work
[19] = 6 µM, mediated by caspase-3-like (CPP32-like) activation

Compound	IC50 [3]	IC50 [4]	IC50 [5]	IC50 [6]	IC50 [7]	other results
CC(C)=CCC/C(C)=C/CC/C(C)=C/CC/C(C)=C/C[C@@H](O)/C=C(\C)CC/C=C(\C)CC/C=C(\C)CCC=C(C)C [Compound 1, (6E,10E,14E,18E,22E,26E)-2,6,10,14,19,23,27,31-octamethyldotriaconta-2,6,10,14,18,22,26,30-octaen-16R-ol]	37.3 ± 3.5 µM	32 ± 4.4 µM	26.6 ± 3.5 µM	21.3 ± 3.5 µM	88.8 ± 8.9 µM	inhibition at 25.6 µM ([1]; Mus musculus, RAW264.7, 14.4 µg/mL (25.6 µM)): 28.6 ± 1.81%; effect on cell viability of RAW 264.7 cells [2]: decreased the cell viability; population in sub-G1 phase [8]: 18.5%; population in sub-G1 phase [9]: 14.8%; population in sub-G1 phase [10]: 19.0%; percentage of early phase apoptosis cells [11]: 22.6%; morphological changes (AO/EB fluorescence microscopy) [12]: apoptotic bodies formation and clear condensation of chromatin; Bcl-2 transcripts [13]: inhibition of Bcl-2; Bax transcripts [14]: increased Bax transcripts; Bax/Bcl-2 ratio [14]: increasing the Bax/Bcl-2 ratio; caspase 3/7 activation [15]: statistically significant increase in caspase 3/7 activation
CC(C)=CCC/C(C)=C/CC/C(C)=C/CC/C(C)=C/CC/C(C)=C\CC/C(C)=C\CC/C(C)=C\CC/C(C)=C\CC/C(C)=C\CC/C(C)=C\CC/C(C)=C\CC/C(C)=C\CO [Compound 2, (Z8,E3,ω)-dodecaprenol]	95.7 ± 12 µM	74.2 ± 5 µM	76.6 ± 6 µM	50.3 ± 5.9 µM	76.6 ± 6 µM	inhibitory activity on NO production [1]: negligible inhibitory activity
CC(C)=CCC/C(C)=C/CC/C(C)=C/CC/C(C)=C/CC/C(C)=C\CC/C(C)=C\CC/C(C)=C\CC/C(C)=C\CC/C(C)=C\CC/C(C)=C\CC/C(C)=C\CC/C(C)=C\CC/C(C)=C\CO [Compound 3, (Z9,E3,ω)-tridecaprenol]	84.1 ± 8.9 µM	76.4 ± 6.6 µM	74.2 ± 5.5 µM	69.7 ± 5.5 µM	74.1 ± 5.5 µM	inhibitory activity on NO production [1]: negligible inhibitory activity
CC(=O)O[C@H]1C(=O)[C@@]2(C)[C@H]([C@H](OC(=O)c3ccccc3)[C@]3(O)C[C@H](OC(=O)[C@H](O)[C@@H](NC(=O)c4ccccc4)c4ccccc4)C(C)=C1C3(C)C)[C@]1(OC(C)=O)CO[C@@H]1C[C@@H]2O [Paclitaxel, reference compound]	0.01 ± 0.002 µM	0.0154 ± 0.0035 µM	0.0065 ± 0.0007 µM	0.008 ± 0.001 µM	0.08 ± 0.005 µM	
CC(C)=CCC/C(C)=C/CC/C(C)=C/CC/C(C)=C/CC/C(C)=C/CC/C(C)=C/CC/C(C)=C/CC/C(C)=C\CC/C(C)=C/CCC(C)CCOP(=O)(O)O (stereo not drawn) [dihydrodecaprenyl phosphates, dihydrodecaprenyl phosphate]						apoptosis in U937 cells [16, 19]: induced apoptosis
COc1ccc2c(c1)c(CC(=O)O)c(C)n2C(=O)c1ccc(Cl)cc1 [indomethacin, reference compound]						edema inhibition [17]: 87.6 ± 0.4%; inhibition at 30 µg/mL ([1]; Mus musculus, RAW264.7, 30 µg/mL): 54.6 ± 8.9%
CC(C)=CCC/C(C)=C/CC/C(C)=C/CC/C(C)=C/CC/C(C)=C/CC/C(C)=C/CC/C(C)=C/CC/C(C)=C/CC/C(C)=C/CO [solanesol]						production of pro-inflammatory cytokines [18]: suppresses the production of pro-inflammatory cytokines
Dihydroheptaprenyl phosphate						apoptosis in U937 cells [16, 19]: induced apoptosis
Dolichyl phosphate						apoptosis in U937 cells ([16]; 8 µg/mL, by the MAP kinase cascade): induced apoptosis
